# Measurements published in the supplement of paper PMC10307832.
# How the values were obtained:
# Experiment in all cases: relative viability (nuclei count vs DMSO), 5 days (fraction); higher = more cells survive
# Tanzisertib + Alpelisib = compound: O[C@H]1CC[C@H](Nc2ncc3nc(Nc4c(F)cc(F)cc4F)n([C@H]4CCOC4)c3n2)CC1 [Tanzisertib] + Cc1nc(NC(=O)N2CCC[C@H]2C(N)=O)sc1-c1ccnc(C(C)(C)C(F)(F)F)c1 [Alpelisib] (partner 2 µM)
# In short: (§1)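 Relative viability was taken as the ratio of nuclei in treated wells to nuclei in vehicle wells. Lung cancer cell lines in 1536-well plates received compounds by pin tool one day after seeding, either one drug alone or a fixed anchor-drug dose plus five library-drug doses (not always all listed) in √10 steps. Nuclei were counted on 4× images after 5 days of treatment, and values are medians of duplicate plates.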
# Tanzisertib + Navitoclax = compound: O[C@H]1CC[C@H](Nc2ncc3nc(Nc4c(F)cc(F)cc4F)n([C@H]4CCOC4)c3n2)CC1 [Tanzisertib] + CC1(C)CCC(c2ccc(Cl)cc2)=C(CN2CCN(c3ccc(C(=O)NS(=O)(=O)c4ccc(N[C@H](CCN5CCOCC5)CSc5ccccc5)c(S(=O)(=O)C(F)(F)F)c4)cc3)CC2)C1 [Navitoclax] (partner 0.5 µM)
# In short: as §1
# Tanzisertib + Tozasertib = compound: O[C@H]1CC[C@H](Nc2ncc3nc(Nc4c(F)cc(F)cc4F)n([C@H]4CCOC4)c3n2)CC1 [Tanzisertib] + Cc1cc(Nc2cc(N3CCN(C)CC3)nc(Sc3ccc(NC(=O)C4CC4)cc3)n2)n[nH]1 [Tozasertib] (partner 0.1 µM)
# In short: as §1
# [1] = compound: C1CNCCC1C2=CC(=NN2)C3=CC=NC=C3 + CC1(C)CCC(c2ccc(Cl)cc2)=C(CN2CCN(c3ccc(C(=O)NS(=O)(=O)c4ccc(N[C@H](CCN5CCOCC5)CSc5ccccc5)c(S(=O)(=O)C(F)(F)F)c4)cc3)CC2)C1 [Navitoclax] (partner 0.5 µM)
# In short: as §1
Cell Line,relative viability (Tanzisertib + Alpelisib; first compound 0.08 µM),relative viability (Tanzisertib + Alpelisib; first compound 0.253 µM),relative viability (Tanzisertib + Alpelisib; first compound 0.8 µM),relative viability (Tanzisertib + Alpelisib; first compound 2.53 µM),relative viability (Tanzisertib + Alpelisib; first compound 8 µM),relative viability (Tanzisertib + Navitoclax; first compound 0.08 µM),relative viability (Tanzisertib + Navitoclax; first compound 0.253 µM),relative viability (Tanzisertib + Navitoclax; first compound 0.8 µM),relative viability (Tanzisertib + Navitoclax; first compound 2.53 µM),relative viability (Tanzisertib + Navitoclax; first compound 8 µM),relative viability (Tanzisertib + Tozasertib; first compound 0.08 µM),relative viability (Tanzisertib + Tozasertib; first compound 0.253 µM),relative viability (Tanzisertib + Tozasertib; first compound 0.8 µM),relative viability (Tanzisertib + Tozasertib; first compound 2.53 µM),relative viability (Tanzisertib + Tozasertib; first compound 8 µM),relative viability ([1]; first compound 0.08 µM),relative viability ([1]; first compound 2.53 µM),relative viability ([1]; first compound 8 µM),relative viability ([1]; first compound 0.8 µM)
HCC-78,0.322,0.304,0.309,0.372,0.34,0.705,0.741,0.766,0.801,0.673,0.493,0.392,0.422,0.389,0.329,0.729,0.836,0.884,–
HCC-366,0.438,0.346,0.295,0.377,0.287,1.16,1.02,1.08,1.13,1.01,0.105,0.0977,0.114,0.0525,0.0508,1.02,1.07,1.08,1.12
HCC-827,1.08,0.97,0.946,0.895,0.391,0.961,1.01,1.11,1,0.742,0.432,0.449,0.354,0.353,0.3,0.972,0.991,0.876,0.995
HOP-62,0.956,1.1,1.02,1.11,1.16,0.978,0.994,0.819,1.11,1.26,0.428,0.433,0.356,0.382,0.375,1.06,1.13,1.03,1.21
IA-LM,0.908,0.802,0.83,0.85,0.956,0.814,0.622,0.691,0.963,1.1,–,–,–,–,–,0.919,0.687,0.611,0.749
LC-2-ad,0.902,0.888,0.939,0.876,0.815,0.549,0.441,0.548,0.534,0.507,0.479,0.412,0.495,0.415,0.34,0.721,0.503,0.35,0.5
LCLC-97TM1,–,0.276,0.271,0.238,0.292,–,0.53,0.38,0.394,0.462,0.252,0.199,0.207,0.207,0.179,0.432,0.396,0.68,0.385
LCLC-103H,0.983,0.94,0.965,0.981,0.923,–,–,–,–,–,0.597,0.442,0.499,0.475,0.457,–,–,–,–
LK-2,1.12,0.946,1.16,1.07,1.12,0.871,0.847,0.87,0.884,0.9,0.164,0.18,0.17,0.163,0.169,0.674,0.843,0.87,1.25
LOU-NH91,0.755,0.706,0.716,0.694,0.549,0.81,0.664,0.747,0.675,0.497,0.778,0.683,0.681,0.652,0.596,0.653,0.866,0.703,0.762
LU99A,0.549,0.519,0.521,0.503,0.456,0.713,0.847,0.879,0.743,0.781,0.256,0.284,0.276,0.259,0.298,0.662,0.776,0.732,0.872
NCI-H358,0.902,0.762,0.922,0.717,0.635,–,–,–,–,–,0.119,0.0917,0.106,0.107,0.117,–,–,–,–
NCI-H522,–,–,–,–,–,–,–,–,–,–,0.578,0.458,0.555,0.572,0.545,–,–,–,–
NCI-H650,1.1,1.19,1.18,1.21,1.18,–,–,–,–,–,0.761,0.796,0.776,0.768,0.65,–,–,–,–
NCI-H661,0.84,0.716,0.561,0.527,0.412,–,–,–,–,–,0.361,0.345,0.331,0.35,0.359,–,–,–,–
NCI-H1299,1.07,1.05,1.08,1.01,1.14,1.06,1.09,1.06,1.08,1.12,–,–,–,–,–,1.09,1.02,1.09,1.04
NCI-H1563,0.92,0.935,0.875,0.862,0.977,–,–,–,–,–,–,–,–,–,–,–,–,–,–
NCI-H1623,–,–,–,–,–,–,–,–,–,–,0.482,0.414,0.482,0.47,0.405,–,–,–,–
NCI-H1648,–,–,–,–,–,–,–,–,–,–,0.418,0.564,0.467,0.398,0.597,–,–,–,–
NCI-H1650,–,–,–,–,–,1.19,1.22,1.17,1.16,1.12,0.392,0.433,0.399,0.359,0.294,1.11,1.12,1.22,1.37
NCI-H1703,0.409,0.251,0.328,0.309,0.303,1.12,0.837,1.05,1.03,0.927,–,–,–,–,–,1.08,1.15,1.35,1.59
NCI-H1792,0.677,0.647,0.737,0.665,0.671,0.75,0.777,0.674,0.553,0.598,–,–,–,–,–,0.611,0.639,0.589,0.679
NCI-H2342,–,–,–,–,–,–,–,–,–,–,0.584,0.481,0.63,0.523,0.581,–,–,–,–
SW 900,–,–,–,–,–,–,–,–,–,–,0.686,0.528,0.603,0.501,0.544,–,–,–,–
